Usually IC50 stands for the concentration at which inhibition is half-maximal.

For series [1], the system named is HepG2 cells. Conditions: for IC50: read-out: MMP assays IC50 (µM) HepG2.
The subject of series [2] is HepG2 cells. As to conditions: cited from earlier work.
Series [3] has as its system rat primary hepatocytes. Nature of the series: MMP assay in rat primary hepatocytes. As to conditions: for IC50: read-out: MMP assays IC50 (µM) Rat Hepatocytes.
The mark [4] stands for this setting: read-out: MMP assays IC50 (µM) qHTS-HepG2.
Setting [5] is: HepG2 cells, single number from one experiment.
The mark [6] stands for this setting: rat hepatocytes, mean ± SD of three experiments.
Setting [7] is: read-out: MMP assays IC50 (µM), qHTS-HepG2.

Like-named read-outs stand apart in the source and are kept apart here.

For the compound Diniconazole, the IC50 in series [1] is 8.91 µM; in series [2] (setting [4]) it was 12.2 ± 3.53 µM; in series [3], 36 ± 28.6 µM.
`O=C(Nc1ccc([N+](=O)[O-])cc1)Nc1ccc([N+](=O)[O-])cc1` [4,4'-Dinitrodiphenylurea]: the “MMP assays efficacy (%) HepG2” value in series [1] is reported as -90%. Moreover, the IC50 in series [1] was 0.97 µM; in series [2] (setting [4]), 0.46 ± 0.06 µM; in series [3], 0.7 ± 0.46 µM. In addition, the “MMP assays efficacy (%) qHTS-HepG2” value in series [2] is -79±2%.
Take `Cc1nc2ccccc2s1` [Compound 2-Methylbenzothiazole]: in series [1] (setting [5]), the “MMP assays IC50 (µM) HepG2” value was “inactive” and the “MMP assays efficacy (%) HepG2” value was “inactive”. For the same compound, in series [2], the “MMP assays IC50 (µM) qHTS-HepG2” value was “inactive” and the “MMP assays efficacy (%) qHTS-HepG2” value is “inactive”. In series [3] (setting [6]), the “MMP assays IC50 (µM) Rat Hepatocytes” value is “inactive” and the “MMP assays efficacy (%) Rat Hepatocytes” value was “inactive”.
In the case of `N=C1NC(=N)c2cc3ccccc3cc21` [1,3-Diiminobenz(f)isoindoline], in series [1] (setting [5]), the “MMP assays efficacy (%) HepG2” value was -95% and the IC50 stood at 35.5 µM. In series [2], the “MMP assays efficacy (%) qHTS-HepG2” value is recorded as -82±11%. The IC50 in series [2] (setting [4]) is 11.1 ± 7.81 µM. In addition, in series [3] (setting [6]), the “MMP assays efficacy (%) Rat Hepatocytes” value is on record as -68±18% and the half-inhibitory concentration (IC50) came to 26.7 ± 23.6 µM.
With `Cl.Nc1ccc2cc3ccc(N)cc3nc2c1` [Proflavin hydrochloride], in series [1] (setting [5]), the “MMP assays efficacy (%) HepG2” value is -97% and the IC50 was found to be 3.55 µM. In addition, the “MMP assays efficacy (%) qHTS-HepG2” value in series [2] is -115±14%. Moreover, in series [2] (setting [7]), the IC50 was 1.66 ± 0.63 µM. In series [3] (setting [6]), the “MMP assays efficacy (%) Rat Hepatocytes” value was -79±34% and the IC50 was found to be 15.9 ± 5.23 µM.
On to `CC/C=C\C/C=C\C/C=C\CCCCCCCC(=O)OCC` [Ethyl linolenate], for which, in series [1] (setting [5]), the “MMP assays IC50 (µM) HepG2” value was “inactive” and the “MMP assays efficacy (%) HepG2” value was “inactive”. The “MMP assays efficacy (%) qHTS-HepG2” value in series [2] is -51±21%. Further, in series [2] (setting [4]), the IC50 is 49.6 ± 36 µM. Also, in series [3] (setting [6]), the “MMP assays IC50 (µM) Rat Hepatocytes” value is “inactive” and the “MMP assays efficacy (%) Rat Hepatocytes” value is “inactive”.
With `O=C1c2ccccc2Cc2ccccc21` [Anthrone], in series [1] (setting [5]), the “MMP assays IC50 (µM) HepG2” value was “inactive”. In addition, the “MMP assays efficacy (%) HepG2” value in series [1] (setting [5]) was “inactive”. Further, in series [2], the “MMP assays efficacy (%) qHTS-HepG2” value is listed as -70±4%. Moreover, the IC50 in series [2] (setting [4]) is 21.8 ± 9.9 µM; in series [3] (Rattus norvegicus, Hepatocyte), 42.4 ± 12 µM. Further, the “MMP assays efficacy (%) Rat Hepatocytes” value in series [3] (setting [6]) is -68±22%.
Consider `C=CCc1cc(S(=O)(=O)c2ccc(O)c(CC=C)c2)ccc1O`, for which, in series [1] (setting [5]), the “MMP assays efficacy (%) HepG2” value is on record as -107% and the IC50 is 15.8 µM. In addition, in series [2], the “MMP assays efficacy (%) qHTS-HepG2” value is -114±19%. Moreover, the IC50 in series [2] (setting [4]) was 45 ± 17.9 µM. For the same compound, in series [3] (setting [6]), the “MMP assays efficacy (%) Rat Hepatocytes” value is -52±23% and the IC50 stood at 24.5 ± 19.9 µM.
In the case of `CCCCCCCCCCCCCC[P+](CCCCCC)(CCCCCC)CCCCCC.[Cl-]` [Trihexyltetradecylphosphonium chloride], in series [1] (setting [5]), the “MMP assays efficacy (%) HepG2” value was -101% and the IC50 was 0.89 µM. Besides, the “MMP assays efficacy (%) qHTS-HepG2” value in series [2] is on record as -113±11%. Further, the IC50 in series [2] (setting [7]) is 0.77 ± 0.35 µM. In series [3] (setting [6]), the “MMP assays efficacy (%) Rat Hepatocytes” value is -91±44% and the IC50 came out at 30.3 ± 8.97 µM.
For the compound `O=C(OCC(COC(=O)c1ccccc1)(COC(=O)c1ccccc1)COC(=O)c1ccccc1)c1ccccc1`, in series [1] (setting [5]), the “MMP assays efficacy (%) HepG2” value is on record as -52% and the IC50 stood at 7.08 µM. The “MMP assays efficacy (%) qHTS-HepG2” value in series [2] is reported as -63±21%. Also, the IC50 in series [2] (setting [4]) is 4.32 ± 8.63 µM. For the same compound, in series [3] (setting [6]), the “MMP assays IC50 (µM) Rat Hepatocytes” value is “inactive” and the “MMP assays efficacy (%) Rat Hepatocytes” value is “inactive”.
Consider `CC(C)COC(=O)c1ccc(O)cc1` [Isobutylparaben], for which, in series [1] (setting [5]), the “MMP assays efficacy (%) HepG2” value was -129% and the IC50 stood at 14.1 µM. Besides, the “MMP assays efficacy (%) qHTS-HepG2” value in series [2] was -91±6%. Also, the IC50 in series [2] (setting [7]) is 14.2 ± 1.82 µM. Also, in series [3] (setting [6]), the “MMP assays IC50 (µM) Rat Hepatocytes” value was “inactive” and the “MMP assays efficacy (%) Rat Hepatocytes” value is “inactive”.

These data come from paper PMC6112376, “Comprehensive Analyses and Prioritization of Tox21 10K Chemicals Affecting Mitochondrial Function by in-Depth Mechanistic Studies” (Environmental Health Perspectives, 2018).
